Results as given in PubChem BioAssay (NCI).
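Growth conditions: 96-well plates. Treatment: test compound, 48 hours, 5 concentrations. Analysis: linear interpolation between bracketing concentrations; unreached endpoints set to highest concentration. GI50: concentration for 50% inhibition of growth. TGI: concentration producing complete growth inhibition.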

How the values were obtained:
Assay in all cases: inhibition of tumour cell growth, NCI panel, 48 h
ACHN renal = tested on: ACHN renal
DU-145 prostate = tested on: DU-145 prostate
HCT-15 colon = tested on: HCT-15 colon
SK-OV-3 ovarian = tested on: SK-OV-3 ovarian
MDA-MB-231 breast = tested on: MDA-MB-231 breast
UO-31 renal = tested on: UO-31 renal
COLO 205 colon = tested on: COLO 205 colon
HOP-62 NSCLC = tested on: HOP-62 NSCLC
EKVX NSCLC = tested on: EKVX NSCLC
HS 578T breast = tested on: HS 578T breast
OVCAR-5 ovarian = tested on: OVCAR-5 ovarian
HOP-92 NSCLC = tested on: HOP-92 NSCLC
UACC-62 melanoma = tested on: UACC-62 melanoma
T-47D breast = tested on: T-47D breast
HL-60(TB) leukemia = tested on: HL-60(TB) leukemia
CAKI-1 renal = tested on: CAKI-1 renal
NCI/ADR-RES ovarian = tested on: NCI/ADR-RES ovarian
PC-3 prostate = tested on: PC-3 prostate
HCC-2998 colon = tested on: HCC-2998 colon
RPMI-8226 leukemia = tested on: RPMI-8226 leukemia
SR leukemia = tested on: SR leukemia
BT-549 breast = tested on: BT-549 breast
OVCAR-8 ovarian = tested on: OVCAR-8 ovarian
SN12C renal = tested on: SN12C renal
MOLT-4 leukemia = tested on: MOLT-4 leukemia
KM12 colon = tested on: KM12 colon
NCI-H23 lung = tested on: NCI-H23 lung
U251 CNS = tested on: U251 CNS
OVCAR-3 ovarian = tested on: OVCAR-3 ovarian
A549 NSCLC = tested on: A549 NSCLC
LOX IMVI melanoma = tested on: LOX IMVI melanoma
A498 renal = tested on: A498 renal
RXF 393 renal = tested on: RXF 393 renal
K-562 leukemia = tested on: K-562 leukemia
UACC-257 melanoma = tested on: UACC-257 melanoma
IGROV1 ovarian = tested on: IGROV1 ovarian
MCF7 breast = tested on: MCF7 breast
MDA-MB-435 = tested on: MDA-MB-435
SF-295 CNS = tested on: SF-295 CNS
NCI-H226 lung = tested on: NCI-H226 lung
MALME-3M melanoma = tested on: MALME-3M melanoma
TK-10 renal = tested on: TK-10 renal
SK-MEL-5 melanoma = tested on: SK-MEL-5 melanoma
SK-MEL-2 melanoma = tested on: SK-MEL-2 melanoma
SF-268 CNS = tested on: SF-268 CNS
OVCAR-4 ovarian = tested on: OVCAR-4 ovarian
HCT-116 colon = tested on: HCT-116 colon
NCI-H460 lung = tested on: NCI-H460 lung
CCRF-CEM leukemia = tested on: CCRF-CEM leukemia
SF-539 CNS = tested on: SF-539 CNS
NCI-H522 lung = tested on: NCI-H522 lung
SW-620 colon = tested on: SW-620 colon
786-0 renal = tested on: 786-0 renal
M14 melanoma = tested on: M14 melanoma

Cc1cc(C(C)(C)CC(C)(C)C)ccc1OCCOCC[N+](C)(C)Cc1ccccc1
GI50 (ACHN renal): 3.19 µM | TGI (ACHN renal): 11.3 µM | GI50 (DU-145 prostate): 1.66 µM | TGI (DU-145 prostate): 3.13 µM | GI50 (HCT-15 colon): 9.8 µM | TGI (HCT-15 colon): 44 µM | GI50 (SK-OV-3 ovarian): 1.44 µM | TGI (SK-OV-3 ovarian): 2.78 µM | GI50 (MDA-MB-231 breast): 1.33 µM | TGI (MDA-MB-231 breast): 2.75 µM | GI50 (UO-31 renal): 2.25 µM | TGI (UO-31 renal): 6.65 µM | GI50 (COLO 205 colon): 1.25 µM | TGI (COLO 205 colon): 2.64 µM | GI50 (HOP-62 NSCLC): 1.44 µM | TGI (HOP-62 NSCLC): 2.84 µM | GI50 (EKVX NSCLC): 1.55 µM | TGI (EKVX NSCLC): 4.07 µM | GI50 (HS 578T breast): 1.86 µM | TGI (HS 578T breast): 5.16 µM | GI50 (OVCAR-5 ovarian): 1.71 µM | TGI (OVCAR-5 ovarian): 3.45 µM | GI50 (HOP-92 NSCLC): 1.03 µM | TGI (HOP-92 NSCLC): 2.46 µM | GI50 (UACC-62 melanoma): 0.967 µM | TGI (UACC-62 melanoma): 2.21 µM | GI50 (T-47D breast): 0.388 µM | TGI (T-47D breast): 1.81 µM | GI50 (HL-60(TB) leukemia): 0.436 µM | TGI (HL-60(TB) leukemia): 1.62 µM | GI50 (CAKI-1 renal): 10.4 µM | TGI (CAKI-1 renal): 39 µM | GI50 (NCI/ADR-RES ovarian): 15.3 µM | TGI (NCI/ADR-RES ovarian): 51 µM

O=C1CSC(c2ccc(Cl)cc2Cl)N1c1ccc(F)cc1 (stereo unspecified)
GI50 (PC-3 prostate): 18.5 µM | TGI (PC-3 prostate): 35.5 µM | GI50 (HCC-2998 colon): 17.6 µM | TGI (HCC-2998 colon): 31.5 µM | GI50 (RPMI-8226 leukemia): 19.5 µM | TGI (RPMI-8226 leukemia): 42.7 µM | GI50 (SR leukemia): 19.6 µM | TGI (SR leukemia): 40.9 µM | GI50 (BT-549 breast): 18 µM | TGI (BT-549 breast): 32.3 µM | GI50 (ACHN renal): 17.2 µM | TGI (ACHN renal): 31.1 µM | GI50 (DU-145 prostate): 16.1 µM | TGI (DU-145 prostate): 29.6 µM | GI50 (OVCAR-8 ovarian): 19 µM | TGI (OVCAR-8 ovarian): 35.7 µM | GI50 (HCT-15 colon): 17.2 µM | TGI (HCT-15 colon): 31 µM | GI50 (SN12C renal): 16.7 µM | TGI (SN12C renal): 30.6 µM | GI50 (MOLT-4 leukemia): 18.5 µM | TGI (MOLT-4 leukemia): 43.4 µM | GI50 (MDA-MB-231 breast): 16.1 µM | TGI (MDA-MB-231 breast): 30.4 µM | GI50 (UO-31 renal): 16.6 µM | TGI (UO-31 renal): 31.5 µM | GI50 (KM12 colon): 15.6 µM | TGI (KM12 colon): 29.8 µM | GI50 (NCI-H23 lung): 16.6 µM | TGI (NCI-H23 lung): 31.2 µM | GI50 (U251 CNS): 17.8 µM | TGI (U251 CNS): 31.7 µM | GI50 (OVCAR-3 ovarian): 17.2 µM | TGI (OVCAR-3 ovarian): 32.1 µM | GI50 (A549 NSCLC): 19.1 µM | TGI (A549 NSCLC): 36.1 µM | GI50 (LOX IMVI melanoma): 18.2 µM | TGI (LOX IMVI melanoma): 34 µM | GI50 (HOP-62 NSCLC): 18 µM | TGI (HOP-62 NSCLC): 32.3 µM | GI50 (A498 renal): 15.9 µM | TGI (A498 renal): 29.8 µM | GI50 (RXF 393 renal): 27.4 µM | TGI (RXF 393 renal): 56 µM | GI50 (K-562 leukemia): 19.8 µM | TGI (K-562 leukemia): 45.7 µM | GI50 (UACC-257 melanoma): 20.1 µM | TGI (UACC-257 melanoma): 36.5 µM | GI50 (IGROV1 ovarian): 16.1 µM | TGI (IGROV1 ovarian): 33.1 µM | GI50 (MCF7 breast): 14 µM | TGI (MCF7 breast): 27 µM | GI50 (MDA-MB-435): 20.8 µM | TGI (MDA-MB-435): 43 µM | GI50 (EKVX NSCLC): 17.6 µM | TGI (EKVX NSCLC): 34.8 µM | GI50 (SF-295 CNS): 18.3 µM | TGI (SF-295 CNS): 37.2 µM | GI50 (HS 578T breast): 16.8 µM | TGI (HS 578T breast): 39.9 µM | GI50 (NCI-H226 lung): 18.2 µM | TGI (NCI-H226 lung): 38.2 µM | GI50 (MALME-3M melanoma): 20.4 µM | TGI (MALME-3M melanoma): 35.5 µM | GI50 (TK-10 renal): 14.4 µM | TGI (TK-10 renal): 27.7 µM | GI50 (OVCAR-5 ovarian): 16 µM | TGI (OVCAR-5 ovarian): 29.5 µM | GI50 (SK-MEL-5 melanoma): 24.6 µM | TGI (SK-MEL-5 melanoma): 39.8 µM | GI50 (SK-MEL-2 melanoma): 18.9 µM | TGI (SK-MEL-2 melanoma): 38 µM | GI50 (HOP-92 NSCLC): 17.6 µM | TGI (HOP-92 NSCLC): 32.8 µM | GI50 (SF-268 CNS): 16.9 µM | TGI (SF-268 CNS): 32.2 µM | GI50 (UACC-62 melanoma): 16.2 µM | TGI (UACC-62 melanoma): 30.5 µM | GI50 (OVCAR-4 ovarian): 16.8 µM | TGI (OVCAR-4 ovarian): 31.9 µM | GI50 (HCT-116 colon): 16.7 µM | TGI (HCT-116 colon): 30.3 µM | GI50 (NCI-H460 lung): 16 µM | TGI (NCI-H460 lung): 29.9 µM | GI50 (CCRF-CEM leukemia): 2.19 µM | TGI (CCRF-CEM leukemia): 19 µM | GI50 (SF-539 CNS): 19.2 µM | TGI (SF-539 CNS): 33.4 µM | GI50 (NCI-H522 lung): 15.1 µM | TGI (NCI-H522 lung): 31.1 µM | GI50 (SW-620 colon): 21.7 µM | TGI (SW-620 colon): 37.5 µM | GI50 (HL-60(TB) leukemia): 21.2 µM | TGI (HL-60(TB) leukemia): 45.6 µM | GI50 (786-0 renal): 17.8 µM | TGI (786-0 renal): 31.7 µM | GI50 (CAKI-1 renal): 24.9 µM | TGI (CAKI-1 renal): 42.7 µM | GI50 (NCI/ADR-RES ovarian): 18.8 µM | TGI (NCI/ADR-RES ovarian): 35.5 µM | GI50 (M14 melanoma): 15.2 µM | TGI (M14 melanoma): 28.8 µM
